Data published in patent publication US20230183218A1, “CONDENSED SUBSTITUTED HYDROPYRROLES AS ANTAGONISTS OF THE MUSCARINIC ACETYLCHOLINE RECEPTOR M4” (Vanderbilt University, priority 2020, published 2023).

Assays:
Human M4 = molecular target: T1, Human M4 (Homo sapiens, UniProt P08173); assay: mAChR M4 cell-based functional assay (calcium flux, antagonist mode vs EC80 acetylcholine), human M4/Gqi5/CHO-K1 cells; details: for remaining activity at 30 µM: CHO-K1, read-out: Human M4 Emin (%); for IC50: decrease of response elicited by EC80 acetylcholine, human M4/Gqi5 CHO-K1 cells
T1 construct: expressed in transfected cells; host or cells: CHO-K1 (ATCC), stably co-expressing chimeric G protein Gqi5
T1 sequence (P08173 1-479): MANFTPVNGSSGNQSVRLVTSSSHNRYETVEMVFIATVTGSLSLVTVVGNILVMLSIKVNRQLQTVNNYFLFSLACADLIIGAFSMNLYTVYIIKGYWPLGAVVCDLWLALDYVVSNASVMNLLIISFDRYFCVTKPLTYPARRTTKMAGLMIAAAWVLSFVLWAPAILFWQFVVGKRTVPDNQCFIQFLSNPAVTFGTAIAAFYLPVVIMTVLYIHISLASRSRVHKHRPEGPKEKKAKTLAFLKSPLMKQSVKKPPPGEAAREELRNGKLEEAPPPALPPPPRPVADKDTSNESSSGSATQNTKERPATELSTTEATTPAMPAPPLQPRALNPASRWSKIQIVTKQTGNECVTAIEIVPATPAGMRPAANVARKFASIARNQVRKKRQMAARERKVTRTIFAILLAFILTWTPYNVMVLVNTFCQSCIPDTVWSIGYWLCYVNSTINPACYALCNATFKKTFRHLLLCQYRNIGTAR
Outline: (§1)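 CHO-K1 cells stably expressing human or rat M4 with Gqi5, Fluo-4 loaded; calcium measured by fluorescence ratio on FDSS. Compound added, then EC20 acetylcholine at 143 s and EC80 at 268 s; IC50 from decrease of EC80 response, four-parameter logistic fit.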

Rat M4 = molecular target: T2, Rat M4 (Rattus norvegicus, UniProt P08485); assay: mAChR M4 cell-based functional assay (calcium flux, antagonist mode vs EC80 acetylcholine), rat M4/Gqi5/CHO-K1 cells; details: for remaining activity at 30 µM: CHO-K1, read-out: Rat M4 Emin (%); for IC50: decrease of response elicited by EC80 acetylcholine, rat M4/Gqi5 CHO-K1 cells
T2 construct: expressed in transfected cells; host or cells: CHO-K1 (ATCC), stably co-expressing chimeric G protein Gqi5
T2 sequence (P08485 1-478): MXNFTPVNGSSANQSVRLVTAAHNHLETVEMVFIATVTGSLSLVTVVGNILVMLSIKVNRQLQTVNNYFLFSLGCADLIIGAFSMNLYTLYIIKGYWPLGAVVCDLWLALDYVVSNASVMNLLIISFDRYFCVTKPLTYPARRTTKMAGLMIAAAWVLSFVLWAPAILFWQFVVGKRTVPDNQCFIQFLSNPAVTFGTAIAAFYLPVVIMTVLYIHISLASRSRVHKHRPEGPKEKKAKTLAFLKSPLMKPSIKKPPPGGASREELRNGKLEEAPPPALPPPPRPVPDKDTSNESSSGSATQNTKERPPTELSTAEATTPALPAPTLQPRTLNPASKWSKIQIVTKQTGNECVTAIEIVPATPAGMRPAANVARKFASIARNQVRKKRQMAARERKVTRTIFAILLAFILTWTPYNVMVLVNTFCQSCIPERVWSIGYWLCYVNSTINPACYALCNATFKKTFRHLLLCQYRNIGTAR
Outline: as §1

[1] = % ACh maximum at 30 μM, human M4

Structure (SMILES) | remaining activity at 30 µM (Human M4; [1]) | IC50 (Human M4) | remaining activity at 30 µM (Rat M4; % ACh maximum at 30 μM, rat M4) | IC50 (Rat M4) | Human M4 Emin (%) (Human M4; [1]) | Rat M4 Emin (%) (Rat M4; % ACh maximum at 30 μM, rat M4)
Cn1cc2cc(-c3ccc(N[C@H]4C[C@@H]5CN(C6CCOCC6)C[C@@H]5C4)nn3)ccc2n1 [compound 62, (3aR,5s,6aS)-N-(6-(2-methyl-2H-indazol-5-yl)pyridazin-3-yl)-2-(tetrahydro-2H-pyran-4-yl)octahydrocyclopenta[c]pyrrol-5-amine] | 9% | 1730 nM | 11% | 2130 nM | – | –
Cn1cc2cc(-c3ccc(N[C@H]4C[C@@H]5CN(C6CCOC(C)(C)C6)C[C@@H]5C4)nn3)ccc2n1 (stereo partly drawn) [compound 63, (3aR,5s,6aS)-2-(2,2-dimethyltetrahydro-2H-pyran-4-yl)-N-(6-(2-methyl-2H-indazol-5-yl)pyridazin-3-yl)octahydrocyclopenta[c]pyrrol-5-amine] | 3% | 9.53 nM | 5% | 374 nM | – | –
Fc1ccc(Cl)c(-c2ccc(N[C@H]3C[C@@H]4CN(C5(C6CCOCC6)CC5)C[C@@H]4C3)nn2)c1 [compound 64, (3aR,5s,6aS)-N-(6-(2-chloro-5-fluorophenyl)pyridazin-3-yl)-2-(1-(tetrahydro-2H-pyran-4-yl)cyclopropyl)octahydrocyclopenta[c]pyrrol-5-amine] | 4% | 161 nM | 32% | > 10000 nM | – | –
CC1(C)CC(N2C[C@H]3C[C@H](Nc4ccc([S+]([O-])c5ccccc5)nn4)C[C@H]3C2)CCO1 (stereo partly drawn) [compound 65, (3aR,5s,6aS)-2-(2,2-dimethyltetrahydro-2H-pyran-4-yl)-N-(6-(phenylsulfinyl)pyridazin-3-yl)octahydrocyclopenta[c]pyrrol-5-amine] | 5% | – | 10% | – | – | –
CC1(C)CC(N2C[C@H]3C[C@H](Nc4ccc(S(=O)(=O)C5CCCCC5)nn4)C[C@H]3C2)CCO1 (stereo partly drawn) [compound 66, (3aR,5s,6aS)-N-(6-(cyclohexylsulfonyl)pyridazin-3-yl)-2-(2,2-dimethyltetrahydro-2H-pyran-4-yl)octahydrocyclopenta[c]pyrrol-5-amine] | – | – | – | 460 nM | 5% | 7%
Fc1ccc(Cl)c(-c2ccc(N[C@H]3C[C@@H]4CN(C5CCC(F)(F)CC5)C[C@@H]4C3)nn2)c1 [compound 67, (3aR,5s,6aS)-N-(6-(2-chloro-5-fluorophenyl)pyridazin-3-yl)-2-(4,4-difluorocyclohexyl)octahydrocyclopenta[c]pyrrol-5-amine] | 4% | 2.42 nM | 13% | 436 nM | – | –
CC1(C)CCC(N2C[C@H]3C[C@H](Nc4ccc(-c5cc(F)ccc5Cl)nn4)C[C@H]3C2)CC1 [compound 68, (3aR,5s,6aS)-N-(6-(2-chloro-5-fluorophenyl)pyridazin-3-yl)-2-(4,4-dimethylcyclohexyl)octahydrocyclopenta[c]pyrrol-5-amine] | 3% | 2.79 nM | 2% | 102 nM | – | –
Fc1ccc(Cl)c(-c2ccc(N[C@H]3C[C@@H]4CN(C5CC6(COC6)C5)C[C@@H]4C3)nn2)c1 [compound 69, (3aR,5s,6aS)-N-(6-(2-chloro-5-fluorophenyl)pyridazin-3-yl)-2-(2-oxaspiro[3.3]heptan-6-yl)octahydrocyclopenta[c]pyrrol-5-amine] | 4% | 11.8 nM | 17% | 905 nM | – | –
CC1(C)C(=O)N(C2CC2)c2nnc(N[C@H]3C[C@@H]4CN(CC5CCOCC5)C[C@@H]4C3)cc21 [compound 70, 7-cyclopropyl-5,5-dimethyl-3-(((3aR,5s,6aS)-2-((tetrahydro-2H-pyran-4-yl)methyl)octahydrocyclopenta[c]pyrrol-5-yl)amino)-5,7-dihydro-6H-pyrrolo [2,3-c]pyridazin-6-one] | 4% | 12.8 nM | 13% | 3970 nM | – | –
C=CCN1C(=O)C(C)(C)c2cc(N[C@H]3C[C@@H]4CN(CCC(C)(C)C)C[C@@H]4C3)nnc21 [compound 71, 7-allyl-3-(((3aR,5s,6aS)-2-(3,3-dimethylbutyl)octahydrocyclopenta[c]pyrrol-5-yl)amino)-5,5-dimethyl-5,7-dihydro-6H-pyrrolo[2,3-c]pyridazin-6-one] | 3% | 12.4 nM | 5% | 369 nM | – | –
CCCN1C(=O)C(C)(C)c2cc(N[C@H]3C[C@@H]4CN(CCC(C)(C)C)C[C@@H]4C3)nnc21 [compound 72, 3-(((3aR,5s,6aS)-2-(3,3-dimethylbutyl)octahydrocyclopenta[c]pyrrol-5-yl)amino)-5,5-dimethyl-7-propyl-5,7-dihydro-6H-pyrrolo[2,3-c]pyridazin-6-one] | 4% | 10.5 nM | 4% | 217 nM | – | –
CC(C)(O)CN1C[C@H]2C[C@H](Nc3ccc(-c4cc(F)ccc4Cl)nn3)C[C@H]2C1 [compound 73, 1-((3aR,5s,6aS)-5-((6-(2-Chloro-5-fluorophenyl)pyridazin-3-yl)amino)hexahydrocyclopenta[c]pyrrol-2(1H)-yl)-2-methylpropan-2-ol] | 3% | 13.5 nM | 8% | 1360 nM | – | –
Fc1ccc(Cl)c(-c2ccc(N[C@H]3C[C@@H]4CN(C5CCCC5)C[C@@H]4C3)nn2)c1 [compound 74, (3aR,5s,6aS)-N-(6-(2-chloro-5-fluorophenyl)pyridazin-3-yl)-2-cyclopentyloctahydrocyclopenta[c]pyrrol-5-amine] | 2% | 27.3 nM | 4% | 933 nM | – | –
Fc1ccc(Cl)c(-c2ccc(N[C@H]3C[C@@H]4CN(C5CCCCCC5)C[C@@H]4C3)nn2)c1 [compound 75, (3aR,5s,6aS)-N-(6-(2-chloro-5-fluorophenyl)pyridazin-3-yl)-2-cycloheptyloctahydrocyclopenta[c]pyrrol-5-amine] | 2% | 3.2 nM | 3% | 41.8 nM | – | –
Fc1ccc(Cl)c(-c2ccc(N[C@H]3C[C@@H]4CN(C5Cc6ccccc6C5)C[C@@H]4C3)nn2)c1 [compound 76, (3aR,5s,6aS)-N-(6-(2-chloro-5-fluorophenyl)pyridazin-3-yl)-2-(2,3-dihydro-1H-inden-2-yl)octahydrocyclopenta[c]pyrrol-5-amine] | 3% | 189 nM | 4% | 350 nM | – | –
Fc1ccc(Cl)c(-c2ccc(N[C@H]3C[C@@H]4CN(C5CCC6(CCCCC6)CC5)C[C@@H]4C3)nn2)c1 [compound 77, (3aR,5s,6aS)-N-(6-(2-chloro-5-fluorophenyl)pyridazin-3-yl)-2-(spiro[5.5]undecan-3-yl)octahydrocyclopenta[c]pyrrol-5-amine] | 3% | 25.7 nM | 7% | 387 nM | – | –
Fc1ccc(Cl)c(-c2ccc(N[C@H]3C[C@@H]4CN(C5CCC6(CCOCC6)CC5)C[C@@H]4C3)nn2)c1 [compound 78, (3aR,5s,6aS)-N-(6-(2-chloro-5-fluorophenyl)pyridazin-3-yl)-2-(3-oxaspiro[5.5]undecan-9-yl)octahydrocyclopenta[c]pyrrol-5-amine] | 3% | 2.3 nM | 3% | 102 nM | – | –
O=S1(=O)CCC(N2C[C@H]3C[C@H](Nc4ccc(-c5cc(F)ccc5Cl)nn4)C[C@H]3C2)CC1 [compound 79, 4-((3aR,5s,6aS)-5-((6-(2-chloro-5-fluorophenyl)pyridazin-3-yl)amino)hexahydrocyclopenta[c]pyrrol-2(1H)-yl)tetrahydro-2H-thiopyran 1,1-dioxide] | 8% | 1750 nM | 42% | > 10000 nM | – | –
